The test system of one test is Mus musculus. Kind of test: Antidiabetic activity in six hour fasted type 2 diabetic C57BL/6 db/db mouse assessed as decrease in fasting blood glucose level at 250 mg/kg,po for 4 weeks by Glucose analyzer. It is filed as functional. Also on record: scale not given: the % may be the effect or the level left.
Test [1] is described as follows: Inhibition of Lipoxygenase (unknown origin). Also on record: species or system Homo sapiens.
A further test relates to Leishmania major. Briefly: Antileishmanial activity against Leishmania major MHOM/IL/80/Friendlin assessed as reduction in parasite growth incubated for 24 hrs by resazurin dye based analysis. It is filed as functional, organism-based. Background: The colour change of resazurin is a common sign of viable cells or microbes.
Another test addresses Alpha-synuclein (Homo sapiens, UniProt P37840). Briefly: Inhibition of wild type full length recombinant alpha-synuclein (unknown origin) expressed in Escherichia coli by spectrophotometric analysis.
In test [2] the test system is Splenocyte. Kind of test: Immunomodulatory activity in mouse splenocytes assessed as maximum effect in CD3+ T cell production at 4 microg/ml incubated for 24 hrs by flow cytometry relative to control. It is filed as functional. The conditions noted are these: dose 4 µg/ml. For orientation: Flow cytometry measures light scatter and fluorescence of single cells or particles in a stream.

In test [3] the test system is Splenocyte. Kind of test: Immunomodulatory activity in mouse splenocytes assessed as maximum effect in CD4+ T cell production at 4 microg/ml incubated for 24 hrs by flow cytometry relative to control. It is filed as functional. The following applies: dose 4 µg/ml.
For test [4], the system named is Rattus norvegicus. Briefly: Anti-inflammatory activity against serotonin-induced paw edema in Sprague-Dawley rat assessed as inhibition of paw edema at 10 mg/kg, po measured after 5 hrs relative to control. Also on record: scale not given: the % may be the effect or the level left. The class given is functional.
Test [5] is filed under the species Rattus norvegicus. Briefly: Antioxidant activity in Vitamin E deficient rat model assessed as onset of ascorbate/Fe2+/ADP complex-initiated peroxidation delayed time by measuring onset of peroxidation (lag phase) at 0.25 mM by Thiobarbituric acid substance assay. The class given is functional.
The species named for test [6] is Rattus norvegicus. Briefly: Antioxidant activity in Vitamin E deficient rat model assessed as onset of ascorbate/Fe2+/ADP complex-initiated peroxidation delayed time by measuring onset of peroxidation (lag phase) at 0.5 mM by Thiobarbituric acid substance assay. The class given is functional.

This is an account of results in ChEMBL document CHEMBL5528024, “Comprehensive and critical view on the anti-inflammatory and immunomodulatory role of natural phenolic antioxidants” (Eur J Med Chem, 2024).

Values after ≈ are worked out from the molar mass of the structure shown.

The term IC50 denotes the concentration that gives 50% inhibition. A word on the EC50: it is the concentration giving half of the maximal effect.

Take `O=C(/C=C/c1ccc(O)c(O)c1)O[C@@H]1C[C@](O)(C(=O)O)C[C@@H](O)[C@H]1O` [CHLOROGENIC ACID]: in the test with Mus musculus, the Activity is on record as 31%. Take `COc1cc(/C=C/C(=O)CC(=O)/C=C/c2ccc(O)c(OC)c2)ccc1O` [CURCUMIN]: in test [1], the IC50 stood at 45.3 µM. For `O=c1oc2c(O)c(O)cc3c(=O)oc4c(O)c(O)cc1c4c23` [ELLAGIC ACID], in the test with Leishmania major, the EC50 is 0.9 µg/mL (≈ 2.98 µM). On to `COc1cc(/C=C/C(=O)O)ccc1O` [FERULATE], for which the IC50 at Alpha-synuclein was found to be 13 µM. Consider `O=c1c(O)c(-c2ccc(O)c(O)c2)oc2cc(O)ccc12` [FISETIN], for which the Activity in the test with Splenocyte [2] stood at 39.62%; in the test with Splenocyte [3], 28.92%. For the compound `O=C(O)c1cc(O)c(O)c(O)c1` [GALLIC ACID], the EC50 in the test with Leishmania major was determined as 5 µg/mL (≈ 29.4 µM). For `COc1ccc2c(c1)c(CC(=O)O)c(C)n2C(=O)c1ccc(Cl)cc1` [INDOMETHACIN], in the test with Rattus norvegicus [4], the Activity worked out at 34.2%. With `O=c1c(O)c(-c2cc(O)c(O)c(O)c2)oc2cc(O)cc(O)c12` [MYRICETIN], the Time in the test filed under Rattus norvegicus [5] was determined as 12.6 min; in the test filed under Rattus norvegicus [6] it was 14.3 min.
